Several values for one entry are separate records, joined by “and”; a condition that tells them apart may be missing. Identical values can stand only once.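 Interpolation was linear, between the two tested concentrations surrounding the appropriate level; five concentrations were tested over 48 hours in 96-well plates. GI50 is the concentration that inhibits growth by half. TGI denotes the concentration required for complete inhibition of growth.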
What was measured:
Experiment in all cases: inhibition of tumour cell growth, NCI panel, 48 h
ACHN renal = system: ACHN renal
CAKI-1 renal = system: CAKI-1 renal
COLO 205 colon = system: COLO 205 colon
HCT-15 colon = system: HCT-15 colon
HOP-92 NSCLC = system: HOP-92 NSCLC
IGROV1 ovarian = system: IGROV1 ovarian
NCI-H522 lung = system: NCI-H522 lung
RPMI-8226 leukemia = system: RPMI-8226 leukemia
SK-MEL-28 melanoma = system: SK-MEL-28 melanoma
SK-OV-3 ovarian = system: SK-OV-3 ovarian
UACC-257 melanoma = system: UACC-257 melanoma

Row | Compound | TGI (ACHN renal) | TGI (CAKI-1 renal) | TGI (COLO 205 colon) | TGI (HCT-15 colon) | TGI (HOP-92 NSCLC) | TGI (IGROV1 ovarian) | TGI (NCI-H522 lung) | TGI (RPMI-8226 leukemia) | TGI (SK-MEL-28 melanoma) | TGI (SK-OV-3 ovarian) | TGI (UACC-257 melanoma) | GI50 (ACHN renal) | GI50 (CAKI-1 renal) | GI50 (COLO 205 colon) | GI50 (HOP-92 NSCLC) | GI50 (IGROV1 ovarian) | GI50 (NCI-H522 lung) | GI50 (SK-MEL-28 melanoma) | GI50 (UACC-257 melanoma)
1 | Cc1ccc([N+](=O)[O-])cc1S(=O)(=O)Nc1ccc(C2=NOC(c3ccccc3O)C2)cc1 (stereo not drawn) | > 100 µM | > 100 µM | 19.8 µM | 85.3 µM | > 100 µM | > 100 µM | 6.4 µM | > 100 µM | > 100 µM | > 100 µM | > 100 µM |  |  |  |  |  |  |  | 
2 | CCO[C@]12CCC[C@H]1[C@@H]1C(=O)c3ccccc3C(=O)C1=C(C)O2 | > 100 µM | > 100 µM | > 100 µM | > 100 µM | > 100 µM | > 100 µM | > 100 µM | > 100 µM | > 100 µM | > 100 µM | > 100 µM |  |  |  |  |  |  |  | 
3 | O=C(NC(Cc1ccc(I)cc1)C(=O)O)c1ccc(Cl)cc1 (stereo not drawn) |  | > 100 µM | > 100 µM | > 100 µM | > 100 µM | > 100 µM | > 100 µM | > 100 µM | > 100 µM | > 100 µM | > 100 µM |  |  |  |  |  |  |  | 
4 | NCCNCCNc1ccc(NCCNCCN)c2c1C(=O)c1c(O)ccc(O)c1C2=O | > 100 µM | > 100 µM | > 100 µM | > 100 µM | > 100 µM | > 100 µM | > 100 µM | > 100 µM | > 100 µM | > 100 µM | > 100 µM |  |  |  |  |  |  |  | 
5 | CNC(C)Cc1ccccc1OC (stereo not drawn) | > 100 µM | > 100 µM | > 100 µM | > 100 µM | > 100 µM | > 100 µM | > 100 µM | > 100 µM | > 100 µM | > 100 µM | > 100 µM |  |  |  |  |  |  |  | 
6 | c1c2c(cc3c1OCO3)-c1cc3ccc4c(c3c[n+]1CC2)OCO4 | > 12.5 µM | > 12.5 µM | > 10.8 µM | 4.77 µM | > 12.5 µM | > 12.5 µM | 1.8 µM | > 12.5 µM | > 12.5 µM | > 12.5 µM | > 12.5 µM |  |  |  |  |  |  |  | 
7 | C[N+](C)(C)CCN[N+]1(C)CCCc2ccccc21 (stereo not drawn) | > 100 µM | > 100 µM | > 100 µM | > 100 µM | > 100 µM | > 100 µM | 40.3 µM | 92.9 µM | > 100 µM | > 100 µM | > 100 µM |  |  |  |  |  |  |  | 
8 | CC1CC(Br)C(=O)O1 (stereo not drawn) | > 100 µM | > 100 µM | > 100 µM | > 100 µM | > 100 µM | > 100 µM | > 100 µM | > 100 µM | > 100 µM | > 100 µM | > 100 µM |  |  |  |  |  |  |  | 
9 | COC(=O)/C=C1\CCCN1CCc1cc2c(cc1CC#N)OCO2 | > 100 µM | > 100 µM | > 100 µM | > 100 µM | > 100 µM | > 100 µM | > 100 µM | > 100 µM | > 100 µM | > 100 µM | > 100 µM |  |  |  |  |  |  |  | 
10 | Oc1ccc(-c2nc3cc(F)ccc3s2)cc1 | 40.7 µM | 43.9 µM | 33.9 µM | 68.2 µM | 47.1 µM | 43.4 µM | 30.7 µM | 60.5 µM | 42.8 µM | 50.7 µM | 69.6 µM |  |  |  |  |  |  |  | 
11 | O=C1OC2(OC2c2ccc(Cl)cc2)c2ccccc21 (stereo not drawn) | > 100 µM | > 100 µM | > 100 µM | > 100 µM | > 100 µM | > 100 µM | > 100 µM | > 100 µM | > 100 µM | > 100 µM |  |  |  |  |  |  |  |  | 
12 | CO/N=C(\C)c1cccc(Nc2nc3ccccc3c3occc23)c1 | 27.9 µM | 25.4 µM | 24.5 µM | 24.5 µM | 20.3 µM |  |  | 40.8 µM | 27.6 µM | 27.1 µM | 3.69 µM |  |  |  |  |  |  |  | 
13 | CN(C)c1ccc(/C=c2/c3ccccc3n3c2cc(NC(=O)NCCC[N+](C)(C)C)[n+]3C)cc1 | > 100 µM | > 100 µM | > 100 µM | > 100 µM | > 100 µM | 46.9 µM | > 100 µM | > 100 µM | > 100 µM | > 100 µM | > 100 µM |  |  |  |  |  |  |  | 
14 | CS(=O)(=O)OCCN(CCOS(C)(=O)=O)c1ccc(/C=N/Nc2ncnc3nc[nH]c23)cc1 | 97.2 µM | 32.5 µM | 31.7 µM | > 100 µM | 63.5 µM | 71.6 µM | 31.1 µM | 39 µM | 63.4 µM | > 100 µM | 48.9 µM |  |  |  |  |  |  |  | 
15 | O=C(CSc1nc2ccc(I)cc2c(=O)n1Cc1ccccc1)NN1C(=O)c2ccccc2C1=O | 68.9 µM | 33.5 µM | > 100 µM | > 100 µM | 35.9 µM | 64.2 µM | 34.1 µM | > 100 µM | 49.9 µM | 29.1 µM | 51.4 µM |  |  |  |  |  |  |  | 
16 | Cc1ccc(N=NC(C2=NC(=O)CS2)c2nc3ccccc3[nH]2)cc1 (stereo not drawn) | > 100 µM | > 100 µM | > 100 µM | > 100 µM | > 100 µM | > 100 µM | > 100 µM | > 100 µM | > 100 µM | > 100 µM | > 100 µM |  |  |  |  |  |  |  | 
17 | Cc1c2cc[n+](C)cc2c(C)c2c1oc1ccccc12 | > 100 µM | 98.3 µM | 14.8 µM | > 100 µM | 32.7 µM | 52.6 µM | 8.17 µM | 30.1 µM | 21.8 µM | 57.8 µM | 17.9 µM |  |  |  |  |  |  |  | 
18 | COC(=O)NC1C(C)OC(OC2C/C=C(/C)C3C=CC4C(OC5CC(OC6CC(OC7CC(O)C(O)C(C)O7)C(OC7CC(O)C(OC)C(C)O7)C(C)O6)C(O)C(C)O5)C(C)CC(C)C4C3(C)/C(O)=C3\C(=O)OC4(CC(C)C(CO)=CC4/C=C\2C)C3=O)CC1(C)[N+](=O)[O-] (stereo not drawn) | 27.2 µM | 41.1 µM | 36.2 µM | 36.4 µM | 32.5 µM | 34 µM | 49.4 µM | 7.66 µM | 81.3 µM |  | 57.8 µM |  |  |  |  |  |  |  | 
19 | CCSc1nc(-c2cccs2)nc2ccc(I)cc12 | > 100 µM | > 100 µM | > 100 µM | > 100 µM |  | > 100 µM | > 100 µM | > 100 µM | > 100 µM |  | > 100 µM |  |  |  |  |  |  |  | 
20 | CCCCCCCN(CCCCCCC)CC(O)c1cc2ccccc2c2cc(Br)ccc12 (stereo not drawn) | > 100 µM | > 100 µM | > 100 µM | > 100 µM | 77 µM | > 100 µM | > 100 µM | > 100 µM | > 100 µM | > 100 µM | > 100 µM |  |  |  |  |  |  |  | 
21 | Cc1[nH]n(-c2ccccc2)c(=O)c1C(N(CCc1ccccc1)C1=NCC(C)S1)(C(F)(F)F)C(F)(F)F (stereo not drawn) | 79.3 µM | > 100 µM | 18.7 µM | 41.1 µM | 58.5 µM |  | 28.2 µM |  | 51.2 µM | 95.1 µM | 56.7 µM |  |  |  |  |  |  |  | 
22 | COC(=O)c1ccccc1C1=C([N+](=O)[O-])C(c2cccc(Br)c2)C(C#N)=C(N)O1 (stereo not drawn) | 43.4 µM |  | > 100 µM | 41 µM | 62.1 µM | 77.6 µM | 29.2 µM | > 100 µM | > 100 µM | > 100 µM | > 100 µM |  |  |  |  |  |  |  | 
23 | COc1cc([N+](=O)[O-])ccc1NC(=O)c1cccc([N+](=O)[O-])c1O | 62 µM | 48.8 µM | 40.3 µM | > 100 µM |  | > 100 µM | 39 µM | 61.9 µM | > 100 µM | 77.9 µM | 63.7 µM |  |  |  |  |  |  |  | 
24 | CCc1ccc2c(c1)C(=O)c1c-2n(CCCN)c(=O)c2cc([N+](=O)[O-])ccc12 | 2.84 µM | 3.11 µM | 2.51 µM |  | 4.06 µM | 2.56 µM | 2.7 µM |  | 3.2 µM |  | 3.42 µM | 1.51 µM | 1.55 µM | 1.21 µM | 2.34 µM | 1.22 µM | 1.23 µM | 1.68 µM | 1.88 µM
25 | N=C(N)SCc1cccc([N+](=O)[O-])c1 |  | 74.1 µM | 47.9 µM | > 100 µM | 60.9 µM | > 100 µM | 18.2 µM | 59.1 µM | 98.9 µM | > 81.4 µM | > 75 µM |  |  |  |  |  |  |  | 
26 | CC1(C=O)CCC23COC4(CCC5C6(C)CCC(OC7OCC(OC8OC(CO)C(O)C(OC9OC(CO)C(O)C(O)C9O)C8OC8OCC(O)C(O)C8O)C(O)C7OC7OC(CO)C(O)C(O)C7O)C(C)(C)C6CCC5(C)C4(C)CC2O)C3C1 (stereo not drawn) | 2.57 µM | 2.32 µM | 2.56 µM | 2.86 µM | 1.53 µM | 2.88 µM | 3.41 µM | 4.45 µM |  | 2.57 µM |  |  |  |  |  |  |  |  | 
27 | CN(C)CCCN1c2ccc([N+](=O)[O-])cc2CCc2cc([N+](=O)[O-])ccc21 | 23.5 µM and 29 µM | 29.1 µM | 32 µM and 29.4 µM | 33 µM and 33.6 µM | 20 µM and 18 µM | 28.9 µM and 29.1 µM | 32.3 µM and 34 µM | 55.3 µM and 34.1 µM | 30 µM and 29.3 µM | 32.4 µM and 29 µM | 28.7 µM and 27.4 µM |  |  |  |  |  |  |  | 
28 | c1ccc([P+](c2ccccc2)(c2ccccc2)c2ccc(-c3ccc([P+](c4ccccc4)(c4ccccc4)c4ccccc4)cc3)cc2)cc1 | 73.3 µM | > 100 µM | 31.5 µM | > 100 µM |  | 13.4 µM | 64.4 µM | > 100 µM | > 100 µM | > 100 µM | 63 µM |  |  |  |  |  |  |  | 
29 | C[n+]1c2ccccc2c(CNC(CS)C(=O)O)c2ccccc21 (stereo not drawn) | > 100 µM | 70.5 µM | 47.8 µM | 55.1 µM | 52 µM | 67.2 µM | 34.8 µM | 50.5 µM |  | 56.8 µM | > 100 µM |  |  |  |  |  |  |  | 

From PubChem BioAssay (NCI)
